Like-named read-outs stand apart in the source and are kept apart here.
What was measured:
[1] = tested on: Wildtype Chlamydomonas reinhardtii; conditions: cited from earlier work; for Complete Growth inhibition: concentration at which growth is inhibited; for IC50: Vartak and Sujata 1997/1999, read-out: I50
[2] = tested on: Resistant Chlamydomonas reinhardtii; conditions: cited from earlier work; for Highest tolerated concentration: highest concentration an isolated resistant strain can tolerate; for IC50: Vartak and Sujata 1997/1999, read-out: I50
[3] = tested on: atpA-EPSPS (G163A/A252T) engineered C. reinhardtii strain; assay: Growth on HSM plates with increasing amounts of glyphosate; format: cell-based, Chlamydomonas reinhardtii; conditions: 0-2 mM glyphosate, chloroplast atpA-EPSPS (G163A/A252T) strain
Description: (§1) To characterize the effect of expressing the double mutated C. reinhardtii EPSPS directly in the chloroplast, engineered strains, along with wild type C. reinhardtii cc 1690 (mt+), were plated on HSM plates with increasing amounts of glyphosate (0-2 mM). Wild type C. reinhardtii cc1690 was sensitive to approximately 1 mM glyphosate whereas the psbD-EPSPS (G163A/A252T) and atpA-EPSPS (G163A/A252T) engineered strains were sensitive at approximately 1.8 and 1.6 mM glyphosate, respectively.

[4] = tested on: psbD-EPSPS (G163A/A252T) engineered C. reinhardtii strain; assay: as above; format: cell-based, Chlamydomonas reinhardtii; conditions: 0-2 mM glyphosate, chloroplast psbD-EPSPS (G163A/A252T) strain
Description: as §1

[5] = tested on: wild type C. reinhardtii cc1690 (mt+); assay: as above; format: cell-based, Chlamydomonas reinhardtii; conditions: 0-2 mM glyphosate
Description: as §1

[6] = tested on: Resistant Chlamydomonas reinhardtii; assay: Highest herbicide concentration an isolated resistant strain can tolerate (chart); format: cell-based; conditions: unpublished results
Description: (§2) Provided below is an exemplary chart of herbicide concentrations that can be used in the embodiments disclosed herein. The concentrations provided are the concentration that growth of the wild type algae is inhibited at, and the highest concentrations that an isolated resistant strain of Chlamydomonas reinhardtii can tolerate. One of skill in the art would be able to determine the proper concentration of the herbicides listed in the chart without undue experimentation.

[7] = tested on: Wildtype Chlamydomonas reinhardtii; assay: Herbicide concentration at which growth of wild type algae is inhibited (chart); format: cell-based; conditions: unpublished results
Description: as §2

Structure (SMILES): COc1nc(C)nc(NC(=O)NS(=O)(=O)c2ccccc2Cl)n1 [Chlorsulfuron]
- Complete Growth inhibition ([1]; Winder and Spalding 1988): 100 µM
- Highest tolerated concentration ([2]; Winder and Spalding 1988): 1000 µM

Structure (SMILES): C[n+]1ccc(-c2cc[n+](C)cc2)cc1 [Paraquat]
- IC50 [1]: 700 nM
- IC50 [2]: 54000 nM

Structure (SMILES): CCNc1nc(Cl)nc(NC(C)C)n1 [Atrazine]
- Complete Growth inhibition ([1]; Galloway and Mets 1984): 5 µM
- Highest tolerated concentration ([2]; Galloway and Mets 1984): 100 µM

Structure (SMILES): CCC(C)n1c(=O)[nH]c(C)c(Br)c1=O (stereo not shown) [Bromacil]
- Complete Growth inhibition ([1]; Galloway and Mets 1984): 2 µM
- Highest tolerated concentration ([2]; Galloway and Mets 1984): 50 µM

Structure (SMILES): CN(C)C(=O)Nc1ccc(Cl)c(Cl)c1 [DCMU, 3-(3,4-dichlorophenyl)-1,1-dimethylurea]
- Complete Growth inhibition ([1]; Galloway and Mets 1984): 2 µM
- Highest tolerated concentration ([2]; Galloway and Mets 1984): 200 µM

Structure (SMILES): CNc1cnn(-c2cccc(C(F)(F)F)c2)c(=O)c1Cl [Norflurazon]
- IC50 [1]: 1100 nM
- IC50 [2]: 3600 nM

Structure (SMILES): O=C(O)CNCP(=O)(O)O [Glyphosate]
- glyphosate concentration the strain was sensitive to [3]: ~1.6 mM
- glyphosate concentration the strain was sensitive to [4]: approximately 1.8 mM
- glyphosate concentration the strain was sensitive to [5]: approximately 1 mM
- Complete Growth inhibition [6]: 5 mM
- Complete Growth inhibition [7]: 1 mM

Structure (SMILES): CC(C)C1(C)N=C(c2nc3ccccc3cc2C(=O)O)NC1=O (stereo not shown) [Imazaquin]
- Complete Growth inhibition ([1]; Winder and Spalding 1988): 1000 µM
- Highest tolerated concentration ([2]; Winder and Spalding 1988): 10000 µM

Reference: patent US20120322102A1, “GENETICALLY ENGINEERED HERBICIDE RESISTANT ALGAE” (SAPPHIRE ENERGY, INC., priority 2008, published 2012)
